Test results: the NIST ThermoML archive (doi:10.1016/j.fluid.2015.07.030)

Assay: refractive index (other wavelength) (dimensionless); xn = mol fraction of the nth substance listed
Settings: 95.99 kPa, Liquid, Standard Abbe refractometry

OCCOCCOCCO [triethylene glycol] + O
refractive index
Settings	Wavelength=404.7 nm	Wavelength=435.8 nm	Wavelength=486.1 nm	Wavelength=546.1 nm	Wavelength=587.6 nm	Wavelength=589.3 nm	Wavelength=632.8 nm	Wavelength=644 nm	Wavelength=706.5 nm
303.15 K, x2 = 0	–	–	–	–	–	1.45267	1.4511	1.45075	1.44903
303.15 K, x2 = 0.1056	–	–	–	–	–	1.45131	1.44977	1.44941	1.44768
303.15 K, x2 = 0.2069	–	–	–	–	–	1.44969	1.44815	1.4478	1.44609
303.15 K, x2 = 0.3104	–	–	–	–	–	1.44605	1.44452	1.44417	1.44246
303.15 K, x2 = 0.4844	–	–	–	–	–	1.44261	1.44109	1.44075	1.43906
303.15 K, x2 = 0.5016	–	–	–	–	–	1.44163	1.44012	1.43978	1.4381
303.15 K, x2 = 0.5952	–	–	–	–	–	1.43507	1.43356	1.43321	1.43153
303.15 K, x2 = 0.6016	–	–	–	–	–	1.43519	1.43369	1.43334	1.43165
303.15 K, x2 = 0.6788	–	–	–	–	–	1.42871	1.42724	1.42689	1.4252
303.15 K, x2 = 0.7835	–	–	–	–	–	1.41945	1.41799	1.41765	1.41598
303.15 K, x2 = 0.8184	–	–	–	–	–	1.41428	1.41284	1.41249	1.41081
303.15 K, x2 = 0.8473	–	–	–	–	1.40803	1.40797	1.40655	1.4062	1.40454
303.15 K, x2 = 0.8719	–	–	–	–	1.40124	1.40118	1.39977	1.39943	1.39777
303.15 K, x2 = 0.8926	–	–	–	–	1.39369	1.39363	1.39224	1.39191	1.39029
303.15 K, x2 = 0.9106	–	–	–	–	1.38817	1.38811	1.38673	1.38639	1.38476
303.15 K, x2 = 0.9254	–	–	–	–	1.37798	1.37792	1.37655	1.37622	1.37461
303.15 K, x2 = 0.9303	–	–	–	–	1.37934	1.37928	1.37792	1.37759	1.37597
303.15 K, x2 = 0.9391	–	–	–	–	1.37533	1.37531	1.37393	1.37361	1.37201
303.15 K, x2 = 0.951	–	–	–	–	1.36879	1.36873	1.36739	1.36708	1.36548
303.15 K, x2 = 0.9599	–	–	–	–	1.36294	1.36288	1.36155	1.36123	1.35966
303.15 K, x2 = 0.9708	–	–	–	–	1.35503	1.35497	1.35367	1.35335	1.35178
303.15 K, x2 = 0.979	–	–	–	–	1.35005	1.34999	1.34869	1.34838	1.34683
303.15 K, x2 = 0.9867	–	–	–	–	1.34407	1.34402	1.34275	1.34244	1.34092
303.15 K, x2 = 0.9936	–	–	–	–	1.33792	1.33786	1.3366	1.3363	1.33481
308.15 K, x2 = 0	1.46397	1.46043	1.45629	1.45285	1.45106	1.45099	1.44945	–	–
308.15 K, x2 = 0.1056	1.46262	1.4591	1.45496	1.45153	1.44974	1.44967	1.44814	–	–
308.15 K, x2 = 0.2069	1.46101	1.4575	1.45334	1.44996	1.44816	1.44809	1.44655	–	–
308.15 K, x2 = 0.3104	1.45847	1.45498	1.45085	1.44745	1.44566	1.44561	1.44407	–	–
308.15 K, x2 = 0.4844	1.45365	1.45024	1.44616	1.44282	1.44105	1.44098	1.43947	–	–
308.15 K, x2 = 0.5016	1.45268	1.44927	1.4452	1.44188	1.44011	1.44065	1.43853	–	–
308.15 K, x2 = 0.5952	1.44587	1.44251	1.43858	1.43529	1.43357	1.4335	1.43202	–	–
308.15 K, x2 = 0.6016	1.44608	1.44288	1.43766	1.43458	1.43283	1.43274	1.43225	–	–
308.15 K, x2 = 0.6788	1.43943	1.43608	1.43224	1.42901	1.42731	1.42725	1.42577	–	–
308.15 K, x2 = 0.7835	1.43059	1.42735	1.42362	1.42052	1.41887	1.4188	1.41735	–	–
308.15 K, x2 = 0.8184	1.4247	1.42147	1.41778	1.41468	1.41303	1.41297	1.41153	–	–
308.15 K, x2 = 0.8473	1.41822	1.41506	1.41139	1.40833	1.40675	1.40666	1.40524	–	–
308.15 K, x2 = 0.8719	1.41127	1.40816	1.40459	1.40157	1.39999	1.39993	1.39853	–	–
308.15 K, x2 = 0.8926	1.40352	1.40046	1.39696	1.39401	1.39245	1.39239	1.39102	–	–
308.15 K, x2 = 0.9106	1.39814	1.3951	1.39162	1.38868	1.38711	1.38705	1.38567	–	–
308.15 K, x2 = 0.9254	1.38807	1.38515	1.38181	1.37898	1.37744	1.37739	1.37602	–	–
308.15 K, x2 = 0.9303	1.38901	1.38605	1.38268	1.37985	1.37833	1.37828	1.37692	–	–
308.15 K, x2 = 0.9391	1.38539	1.38243	1.37908	1.37624	1.37471	1.37465	–	–	–
308.15 K, x2 = 0.951	1.37872	1.37585	1.37256	1.36977	1.36826	1.36821	–	–	–
308.15 K, x2 = 0.9599	1.37231	1.3695	1.36628	1.36351	1.36202	1.36197	–	–	–
308.15 K, x2 = 0.9708	1.36448	1.36175	1.35858	1.35587	1.35442	1.35436	–	–	–
308.15 K, x2 = 0.979	1.35959	1.3569	1.35382	1.35111	1.34968	1.34963	–	–	–
308.15 K, x2 = 0.9867	1.35319	1.35054	1.34746	1.34481	1.34338	1.34332	–	–	–
308.15 K, x2 = 0.9936	1.34702	1.34444	1.34138	1.33876	1.33735	1.3373	–	–	–
